# Structures can show the parent of a compound that is named as a salt. Where a SMILES comes first, the peptide text is derived from it. Bridges are numbered along the chain shown (N, C = ends). [ ]: non-standard residue; d: D form. The star is where a group is joined. Octanoyl(6-Me) = CCC(C)CCCCC(=O)*; Dab = NCC[C@H](N)C(=O)O
# Tests used:
# [1] = test system: Caco-2 monolayer; assay: Caco-2 cell permeability assay; type: in vitro ADME, human; conditions: 21 days culture, apical to basolateral, 0.5 mg/mL according to CT content in 0.01 M phosphate buffer pH 7.2, PBS basolateral, 2 h, sampled every 30 min, B12 by spectrophotometry, CT by HPLC, mean, n = 3
# Description: (§1) The human colon adenocarcinoma cells (Caco-2) obtained from the Cell Culture Collection of the Institute of Cytology RAS (St. Petersburg, Russia) were used to study cell permeability. The study was carried out as described elsewhere. Briefly, Caco-2 cells were cultured in Dulbecco’s modified Eagle medium (DMEM, Biolot, St. Petersburg, Russia) containing L-glutamine, streptomycin/penicillin and 10% FBS in cell culture flasks (area 75 cm^2, Jet Biofil, Guangzhou, China) at 37 °C in a CO2 incubator under humidified conditions. The cultured cells were re-seeded into a new cell culture flask (1:6 ratio) when the cells reached 80–90% confluence. […] The vitamin B12 content and the content of B12-containing conjugates equivalent to vitamin B12 were determined spectrophotometrically, and the CT transferred to the lower chamber was determined by HPLC analysis as described in Section 2.2.2.
# (§2) The Papp was calculated as follows:(2) Papp=dQ/dt∗1/A∗C0 where Papp is the apparent permeability coefficient (cm/s), dQ/dt is the permeation rate (µg/s), A is the area of the monolayer (0.3 sm^2), and C0 is the concentration of the test substance in the apical chamber at the initial time point (µg/mL).
# (§3) In the case of the CT release and conjugate stability experiments, each assay was performed in three repeats. […] The cell permeability assay and antimicrobial activity were analyzed with n = 3 and 4, respectively. […]
# [2] = test system: Human embryonic kidney cells (HEK 293); assay: Cytotoxicity, MTT assay; type: cell-based; conditions: HEK 293, MTT, 72 h, n = 6
# Description: Human embryonic kidney cells (HEK 293) purchased from the Cell Culture Collection of the Institute of Cytology RAS (St. Petersburg, Russia) were used to study the cytotoxicity of the conjugates. HEK 293 cells were cultured at 37 °C in a humidified atmosphere containing 5% CO2 in modified Eagle’s nutrient medium (MEM, Gibco, Billings, MT, USA) containing 1% essential amino acids, 1% L-glutamine, 50 μg/mL streptomycin, 50 U/mL penicillin, and 10 vol% thermally inactivated fetal bovine serum (FBS, HyClone, Logan, UT, USA). A total of 10^4 cells/100 µL/well was seeded into an adhesive 96-well plate and cultured for 1 day. After that, the medium was removed, and 100 µL of MEM with various concentrations of the test conjugates (4–1000 μg/mL with respect to the CT content) was added to each well with cells and incubated for 72 h. […] After the removal of the supernatant, formazan crystals produced by the metabolically viable cells were dissolved in DMSO (50 μL/well) and transferred to clean wells, followed by measuring the absorbance of the solutions at 570 nm using a multiwell plate reader (ThermoFisher Multiskan Labsystems, Waltham, MA, USA).
# as §3
# [3] = Caco-2 cell permeability assay; type: in vitro ADME, human; conditions: Caco-2 monolayer, 21 days culture, apical to basolateral; 0.5 mg/mL according to CT content in 0.01 M phosphate buffer pH 7.2; PBS basolateral; 2 h, sampled every 30 min; B12 by spectrophotometry, CT by HPLC; mean, n = 3; read-out: apparent permeability coefficient (Papp)
# Description: as §1, §2, §3
# [4] = pH 7.4 and 37 °C; cited from earlier work
# Description: The stability results of PMAG(10)-(DFOA,CT) conjugates with hydrolyzable (aldimine) bonds and reduced aldimine bonds in different media are summarized in Table 4. It was shown that the release in the buffer and the simulated biorelevant medium was consistent. […] Under gastric conditions, the release after 2 h was 20–26%, whereas under intestinal conditions, a release of 6–12% was detected.
# [5] = test system: P. aeruginosa; conditions: concentration range of 0.25–64 µg/mL; cited from earlier work
# From the text: The antibacterial activity of free CT and its polymeric conjugates was examined against P. aeruginosa. […] When analyzing the results of the MIC values for the conjugates studied, the following trends can be distinguished.
molecule,measurement,setting,value
cyanocobalamin [vitamin B12],apparent permeability coefficient (Papp),[1],~ 77 × 10^−6 cm/s
"CCC(C)CCCCC(=O)N[C@@H](CCN)C(=O)N[C@H](C(=O)N[C@@H](CCN)C(=O)N[C@H]1CCNC(=O)[C@H]([C@@H](C)O)NC(=O)[C@H](CCN)NC(=O)[C@H](CCN)NC(=O)[C@H](CC(C)C)NC(=O)[C@@H](CC(C)C)NC(=O)[C@H](CCN)NC1=O)[C@@H](C)O (stereo partly drawn) [CT, Polymyxin E (colistin, CT) sulfate salt] ({Octanoyl(6-Me)}-[Dab]T[Dab][Dab][Dab][dL]L[Dab][Dab]T; lactam 4-C; N-terminus assumed)",concentration up to which no toxicity was found,[2]; 4–1000 μg/mL with respect to the CT content,≤ 250 µg/mL
same,cytotoxicity (in words),[2]; at a concentration of 500 μg/mL (with respect to CT content),moderate cytotoxicity
same,Papp A→B,[3],~3 ×10⁻⁶ cm/s
same,half-life of CT,[4],70 h
"CC(=O)N(O)CCCCCNC(=O)CCC(=O)N(O)CCCCCNC(=O)CCC(=O)N(O)CCCCCN [DFOA, deferoxamine methanesulfonate salt]",antibacterial properties against P. aeruginosa,[5],Neither DFOA nor PMAG is known to possess antibacterial properties

# From paper PMC11359296, “Poly(2-Deoxy-2-Methacrylamido-D-Glucose)-Based Complex Conjugates of Colistin, Deferoxamine and Vitamin B12: Synthesis and Biological Evaluation” (Pharmaceutics, 2024)
